Reference: ChEMBL document CHEMBL4219144, “Novel 6-aryl substituted 4-pyrrolidineaminoquinazoline derivatives as potent phosphoinositide 3-kinase delta (PI3Kδ) inhibitors” (Bioorg Med Chem, 2018)

Key:
[1] = target: T1, Phosphatidylinositol 4,5-bisphosphate 3-kinase catalytic subunit delta isoform (Homo sapiens) (UniProt O00329); assay: Inhibition of PI3K p110delta (unknown origin) at 100 nM using lipid substrate after 40 mins by kinase-Glo assay relative to control
T1 sequence (whole entry): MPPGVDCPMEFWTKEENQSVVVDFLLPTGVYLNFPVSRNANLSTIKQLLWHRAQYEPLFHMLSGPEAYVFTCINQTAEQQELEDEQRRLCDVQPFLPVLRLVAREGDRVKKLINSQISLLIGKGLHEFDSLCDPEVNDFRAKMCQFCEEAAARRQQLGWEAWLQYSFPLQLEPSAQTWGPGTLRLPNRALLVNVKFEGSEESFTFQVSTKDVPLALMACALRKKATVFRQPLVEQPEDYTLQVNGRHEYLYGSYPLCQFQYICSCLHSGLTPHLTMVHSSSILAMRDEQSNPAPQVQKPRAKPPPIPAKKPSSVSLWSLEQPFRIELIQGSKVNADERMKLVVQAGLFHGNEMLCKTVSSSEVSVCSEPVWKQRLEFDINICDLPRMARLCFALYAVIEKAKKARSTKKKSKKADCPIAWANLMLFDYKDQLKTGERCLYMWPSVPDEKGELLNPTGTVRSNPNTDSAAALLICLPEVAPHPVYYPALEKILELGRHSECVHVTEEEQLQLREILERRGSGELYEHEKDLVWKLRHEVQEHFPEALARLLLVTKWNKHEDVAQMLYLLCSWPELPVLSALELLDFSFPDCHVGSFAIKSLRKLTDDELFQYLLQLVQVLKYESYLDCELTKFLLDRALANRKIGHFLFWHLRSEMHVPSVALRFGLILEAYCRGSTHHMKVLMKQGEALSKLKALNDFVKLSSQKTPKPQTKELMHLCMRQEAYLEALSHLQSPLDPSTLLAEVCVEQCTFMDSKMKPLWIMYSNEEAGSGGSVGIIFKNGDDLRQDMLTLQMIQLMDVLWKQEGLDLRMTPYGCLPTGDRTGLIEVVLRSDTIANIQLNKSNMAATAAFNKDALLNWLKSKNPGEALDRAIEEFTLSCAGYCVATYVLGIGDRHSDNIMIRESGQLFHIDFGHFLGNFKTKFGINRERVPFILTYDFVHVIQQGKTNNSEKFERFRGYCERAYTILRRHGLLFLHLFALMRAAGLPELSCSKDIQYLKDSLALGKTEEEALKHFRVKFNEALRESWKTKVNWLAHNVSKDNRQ

[2] = target: T2, Phosphatidylinositol 4,5-bisphosphate 3-kinase catalytic subunit delta isoform (Homo sapiens, UniProt O00329); assay: Inhibition of PI3K p110delta (unknown origin) using lipid substrate after 40 mins by kinase-Glo assay
T2 sequence (O00329 whole entry): T1 sequence (whole entry)

[3] = target: Phosphatidylinositol 4,5-bisphosphate 3-kinase catalytic subunit alpha isoform (Homo sapiens, UniProt P42336); assay: Inhibition of PI3K p110alpha (unknown origin) using lipid substrate after 40 mins by kinase-Glo assay
[4] = target: Phosphatidylinositol 4,5-bisphosphate 3-kinase catalytic subunit beta isoform (Homo sapiens, UniProt P42338); assay: Inhibition of PI3K p110beta (unknown origin) using lipid substrate after 40 mins by kinase-Glo assay
[5] = target: Phosphatidylinositol 4,5-bisphosphate 3-kinase catalytic subunit gamma isoform (Homo sapiens, UniProt P48736); assay: Inhibition of PI3K p110gamma (unknown origin) using lipid substrate after 40 mins by kinase-Glo assay
Ramos = assay: cells; type: functional, cell-based; conditions: Homo sapiens, 72 h
Description: Antiproliferative activity against human Ramos cells after 72 hrs by MTT assay

Raji = assay: cells; type: functional, cell-based; conditions: Homo sapiens, 72 h
Description: Antiproliferative activity against human Raji cells after 72 hrs by MTT assay

RPMI-8226 = assay: Antiproliferative activity against human RPMI8226 cells after 72 hrs by MTT assay; type: functional, cell-based; conditions: RPMI-8226, 72 h
SU-DHL-6 = assay: Antiproliferative activity against human SUDHL6 cells after 72 hrs by CCK8 assay; type: functional, cell-based; conditions: SU-DHL-6, 72 h
[6] = Cmax in Sprague-Dawley rat at 10 mg/kg, po by LC-MS/MS analysis; type: ADME, organism-based; parameters: dose 10 mg/kg, route oral; conditions: in vivo
[7] = AUC in Sprague-Dawley rat at 10 mg/kg, po by LC-MS/MS analysis; type: ADME, organism-based; conditions: in vivo
Homo sapiens [8] = species: Homo sapiens; assay: Selectivity ratio of IC50 for PI3K p110alpha (unknown origin) to IC50 for PI3K p110delta (unknown origin)
Homo sapiens [9] = species: Homo sapiens; assay: Selectivity ratio of IC50 for PI3K p110beta (unknown origin) to IC50 for PI3K p110delta (unknown origin)
Homo sapiens [10] = species: Homo sapiens; assay: Selectivity ratio of IC50 for PI3K p110gamma (unknown origin) to IC50 for PI3K p110delta (unknown origin)
Rattus norvegicus [11] = assay: Clearance in Sprague-Dawley rat at 10 mg/kg, po by LC-MS/MS analysis; type: ADME, organism-based; conditions: in vivo
Rattus norvegicus [12] = assay: Apparent volume of distribution in Sprague-Dawley rat at 10 mg/kg, po by LC-MS/MS analysis; type: ADME, organism-based; conditions: in vivo
Rattus norvegicus [13] = assay: Half life in Sprague-Dawley rat at 10 mg/kg, po by LC-MS/MS analysis; type: ADME, organism-based; conditions: in vivo
[14] = Cmax in Sprague-Dawley rat at 3 mg/kg, po by LC-MS/MS analysis; type: ADME, organism-based; parameters: dose 3 mg/kg, route oral; conditions: in vivo
[15] = AUC in Sprague-Dawley rat at 3 mg/kg, po by LC-MS/MS analysis; type: ADME, organism-based; conditions: in vivo
[16] = Oral bioavailability in Sprague-Dawley rat at 3 mg/kg by LC-MS/MS analysis; type: ADME, organism-based; conditions: in vivo
[17] = target: T2, Phosphatidylinositol 4,5-bisphosphate 3-kinase catalytic subunit delta isoform; assay: Inhibition of PI3Kdelta (unknown origin)

Chain of Phosphatidylinositol 4,5-bisphosphate 3-kinase catalytic subunit gamma isoform (P48736 whole entry, canonical isoform): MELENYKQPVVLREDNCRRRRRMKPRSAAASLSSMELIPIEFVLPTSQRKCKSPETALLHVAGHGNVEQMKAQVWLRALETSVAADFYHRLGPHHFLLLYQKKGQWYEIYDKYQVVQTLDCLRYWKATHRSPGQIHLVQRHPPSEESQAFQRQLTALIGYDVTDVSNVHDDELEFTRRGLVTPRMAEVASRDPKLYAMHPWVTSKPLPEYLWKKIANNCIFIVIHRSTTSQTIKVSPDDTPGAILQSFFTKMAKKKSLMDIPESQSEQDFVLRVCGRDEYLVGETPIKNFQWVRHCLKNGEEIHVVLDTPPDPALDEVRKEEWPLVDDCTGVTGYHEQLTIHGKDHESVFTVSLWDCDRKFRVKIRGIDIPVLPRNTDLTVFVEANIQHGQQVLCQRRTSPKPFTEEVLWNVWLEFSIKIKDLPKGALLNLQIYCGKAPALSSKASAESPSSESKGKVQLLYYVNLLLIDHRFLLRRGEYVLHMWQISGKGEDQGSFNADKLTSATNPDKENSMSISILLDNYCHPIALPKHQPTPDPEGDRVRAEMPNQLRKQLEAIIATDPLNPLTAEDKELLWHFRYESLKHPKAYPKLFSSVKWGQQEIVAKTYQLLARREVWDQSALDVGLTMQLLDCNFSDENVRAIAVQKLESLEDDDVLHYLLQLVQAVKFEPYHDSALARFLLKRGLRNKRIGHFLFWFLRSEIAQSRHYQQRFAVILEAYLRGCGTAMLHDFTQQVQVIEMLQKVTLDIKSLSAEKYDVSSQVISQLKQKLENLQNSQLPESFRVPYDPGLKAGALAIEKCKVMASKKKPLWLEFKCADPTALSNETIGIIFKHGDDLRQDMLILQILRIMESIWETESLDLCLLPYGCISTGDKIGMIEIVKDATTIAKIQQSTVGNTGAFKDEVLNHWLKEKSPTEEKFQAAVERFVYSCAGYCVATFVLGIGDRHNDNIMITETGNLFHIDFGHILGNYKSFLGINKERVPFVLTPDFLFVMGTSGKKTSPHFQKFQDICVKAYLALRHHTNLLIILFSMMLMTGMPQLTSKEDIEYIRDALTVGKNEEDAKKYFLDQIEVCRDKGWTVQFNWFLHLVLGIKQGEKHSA
Chain of Phosphatidylinositol 4,5-bisphosphate 3-kinase catalytic subunit beta isoform (P42338 whole entry, canonical isoform): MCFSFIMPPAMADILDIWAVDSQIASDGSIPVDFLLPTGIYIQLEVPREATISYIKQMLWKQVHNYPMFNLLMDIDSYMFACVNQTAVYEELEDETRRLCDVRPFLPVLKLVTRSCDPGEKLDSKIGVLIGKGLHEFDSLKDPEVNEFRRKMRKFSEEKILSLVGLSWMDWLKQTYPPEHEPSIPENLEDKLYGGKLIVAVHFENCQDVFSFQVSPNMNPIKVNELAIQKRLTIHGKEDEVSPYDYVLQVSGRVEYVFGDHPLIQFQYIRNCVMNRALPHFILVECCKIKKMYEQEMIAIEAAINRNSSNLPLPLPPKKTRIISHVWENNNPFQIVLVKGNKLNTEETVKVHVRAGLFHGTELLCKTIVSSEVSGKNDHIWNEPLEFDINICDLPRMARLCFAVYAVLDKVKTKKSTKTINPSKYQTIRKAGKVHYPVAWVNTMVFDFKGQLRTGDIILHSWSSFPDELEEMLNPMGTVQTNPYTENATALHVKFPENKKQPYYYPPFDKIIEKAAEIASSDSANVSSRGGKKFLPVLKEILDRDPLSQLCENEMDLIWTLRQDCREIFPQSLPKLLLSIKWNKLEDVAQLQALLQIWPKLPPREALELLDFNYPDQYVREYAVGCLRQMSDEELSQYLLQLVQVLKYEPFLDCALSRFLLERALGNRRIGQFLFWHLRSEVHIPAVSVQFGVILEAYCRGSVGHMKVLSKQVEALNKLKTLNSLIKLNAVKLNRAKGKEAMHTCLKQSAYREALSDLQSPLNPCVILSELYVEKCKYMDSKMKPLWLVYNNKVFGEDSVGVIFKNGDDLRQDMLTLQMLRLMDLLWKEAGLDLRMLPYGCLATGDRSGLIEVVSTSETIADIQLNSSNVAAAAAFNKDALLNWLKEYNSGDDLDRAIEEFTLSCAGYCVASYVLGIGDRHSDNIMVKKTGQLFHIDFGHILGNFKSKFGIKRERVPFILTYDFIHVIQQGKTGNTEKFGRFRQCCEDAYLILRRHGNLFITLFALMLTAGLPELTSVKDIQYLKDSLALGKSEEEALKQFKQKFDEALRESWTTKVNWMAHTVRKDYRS
Chain of Phosphatidylinositol 4,5-bisphosphate 3-kinase catalytic subunit alpha isoform (P42336 whole entry, canonical isoform): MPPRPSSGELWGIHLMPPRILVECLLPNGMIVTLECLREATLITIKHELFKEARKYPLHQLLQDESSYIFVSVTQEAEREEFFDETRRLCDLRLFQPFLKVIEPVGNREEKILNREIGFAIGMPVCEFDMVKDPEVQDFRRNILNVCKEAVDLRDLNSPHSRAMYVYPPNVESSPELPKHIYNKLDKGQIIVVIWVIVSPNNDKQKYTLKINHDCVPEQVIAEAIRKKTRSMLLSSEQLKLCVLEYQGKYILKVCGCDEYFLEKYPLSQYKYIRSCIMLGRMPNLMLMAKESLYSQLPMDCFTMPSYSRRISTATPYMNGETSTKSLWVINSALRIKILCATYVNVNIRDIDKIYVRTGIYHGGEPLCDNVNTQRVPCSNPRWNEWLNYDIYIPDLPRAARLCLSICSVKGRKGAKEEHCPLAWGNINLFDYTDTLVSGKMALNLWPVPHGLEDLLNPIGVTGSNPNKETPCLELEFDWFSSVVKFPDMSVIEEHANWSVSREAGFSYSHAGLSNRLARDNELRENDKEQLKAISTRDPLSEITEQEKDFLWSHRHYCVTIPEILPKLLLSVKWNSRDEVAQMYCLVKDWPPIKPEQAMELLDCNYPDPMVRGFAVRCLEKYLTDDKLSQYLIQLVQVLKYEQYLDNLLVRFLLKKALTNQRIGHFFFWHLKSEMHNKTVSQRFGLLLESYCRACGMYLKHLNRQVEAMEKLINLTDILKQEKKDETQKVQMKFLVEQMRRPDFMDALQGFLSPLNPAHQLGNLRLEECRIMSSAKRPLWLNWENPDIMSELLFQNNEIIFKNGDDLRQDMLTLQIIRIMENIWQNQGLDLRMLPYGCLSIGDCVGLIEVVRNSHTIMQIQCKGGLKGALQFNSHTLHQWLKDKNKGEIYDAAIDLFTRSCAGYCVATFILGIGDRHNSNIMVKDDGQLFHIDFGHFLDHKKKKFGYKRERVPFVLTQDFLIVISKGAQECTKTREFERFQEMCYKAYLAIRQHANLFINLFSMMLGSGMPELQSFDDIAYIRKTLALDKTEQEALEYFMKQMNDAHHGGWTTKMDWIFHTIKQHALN

Structure (SMILES)	inhibition [1]	IC50 [2]	other results
C=CC(=O)N1CC[C@H](Nc2ncnc3ccc(-c4ccc(OC)nc4)cc23)C1	0%		
COc1ccc(-c2ccc3ncnc(N[C@H]4CCN(C(=O)C(C)(C)C)C4)c3c2)cn1	79%		
COc1ccc(-c2ccc3ncnc(N[C@H]4CCN(C(=O)C5CCOCC5)C4)c3c2)cc1C(N)=O	92%	7.8 nM	
COc1ccc(-c2ccc3ncnc(N[C@H]4CCN(C(=O)OC(C)(C)C)C4)c3c2)cc1C(N)=O	74%		
COc1ccc(-c2ccc3ncnc(N[C@H]4CCN(C(=O)c5ccccc5)C4)c3c2)cn1	87%	3 nM	
COc1ccc(-c2ccc3ncnc(N[C@H]4CCN(C(=O)C5CC5)C4)c3c2)cn1	97%	4.5 nM	IC50 [3]: 25.4 nM; IC50 [4]: 220 nM; IC50 [5]: 224 nM; IC50 (Ramos): 520 nM; IC50 (Raji): 2130 nM; IC50 (RPMI-8226): 1460 nM; IC50 (SU-DHL-6): 500 nM
COc1ncc(-c2ccc3ncnc(N[C@H]4CCN(C(=O)OC(C)(C)C)C4)c3c2)cc1[N+](=O)[O-]	51%		
CC(C)(C)OC(=O)N1CC[C@H](Nc2ncnc3ccc(-c4cnc(N)nc4)cc23)C1	44%		
COc1ccc(-c2ccc3ncnc(N[C@H]4CCN(C(=O)Cc5ccccc5)C4)c3c2)cn1	79%		
COc1ccc(-c2ccc3ncnc(N[C@H]4CCN(C(=O)C5CCC5)C4)c3c2)cn1	98%	5.2 nM	
O=C(CCCCCCC(=O)Nc1ccccc1)NO [VORINOSTAT]			IC50 (RPMI-8226): 660 nM
COc1ccc(-c2ccc3ncnc(N[C@H]4CCN(C(=O)C5CCCC5)C4)c3c2)cn1	97%	4.4 nM	
COc1ncc(-c2ccc3ncnc(N[C@H]4CCN(C(=O)C5CCOCC5)C4)c3c2)cc1[N+](=O)[O-]	99%	3.1 nM	IC50 [3]: 26.7 nM; IC50 [4]: 585 nM; IC50 [5]: 199 nM; IC50 (Ramos): 780 nM; IC50 (Raji): 1480 nM; IC50 (RPMI-8226): 2710 nM; IC50 (SU-DHL-6): 5970 nM
COc1ccc(-c2ccc3ncnc(N[C@H]4CCN(C(=O)c5ccco5)C4)c3c2)cn1	97%	5.5 nM	
COc1ccc(-c2ccc3ncnc(N[C@@H]4CCN(C(=O)C5CCOCC5)C4)c3c2)cn1	46%		
COc1ncc(-c2ccc3ncnc(N[C@H]4CCN(C(=O)C5CCOCC5)C4)c3c2)cc1C#N	99%	2.7 nM	IC50 [3]: 25.6 nM; IC50 [4]: 264 nM; IC50 [5]: 174 nM; IC50 (Ramos): 570 nM; IC50 (Raji): > 10000 nM; IC50 (RPMI-8226): 4340 nM; IC50 (SU-DHL-6): 4550 nM; Cmax [6]: 664 ng/mL; AUC [7]: 524 ng·h/mL; Ratio IC50 (Homo sapiens [8]): 10; Ratio IC50 (Homo sapiens [9]): 100; Ratio IC50 (Homo sapiens [10]): 65; CL (Rattus norvegicus [11]): 40 mL/min/kg; Vz (Rattus norvegicus [12]): 113 L/kg; t1/2 (Rattus norvegicus [13]): 2.99 h
COc1ccc(-c2ccc3ncnc(N[C@H]4CCNC4)c3c2)cn1	38%		

Structure (SMILES)	inhibition [1]	IC50 [2]	other results
COc1ccc(-c2ccc3ncnc(N[C@H]4CCN(C(=O)OC(C)(C)C)C4)c3c2)cn1	91%	8.1 nM	
COc1ncc(-c2ccc3ncnc(N[C@H]4CCN(C(=O)C5CC5)C4)c3c2)cc1C#N	97%	5.5 nM	
CC[C@H](Nc1ncnc2[nH]cnc12)c1nc2cccc(F)c2c(=O)n1-c1ccccc1 [IDELALISIB]	96%		IC50 (Ramos): > 10000 nM; IC50 (Raji): 9950 nM; IC50 (RPMI-8226): 5490 nM; IC50 (SU-DHL-6): 650 nM; Cmax [14]: 129 ng/mL; AUC [15]: 422 ng·h/mL; bioavailability [16]: 39%
COc1ncc(-c2ccc3ncnc(N[C@H]4CCN(C(=O)OC(C)(C)C)C4)c3c2)cc1C#N	88%	18.7 nM	
COc1ccc(-c2ccc3ncnc(N[C@H]4CCN(C(=O)C5CCCCC5)C4)c3c2)cn1	85%	2.9 nM	
CC(C)(C)OC(=O)N1CC[C@H](Nc2ncnc3ccc(-c4ccc(N)nc4)cc23)C1	17%		
COc1ccc(-c2ccc3ncnc(N[C@H]4CCN(S(=O)(=O)C5CC5)C4)c3c2)cn1	83%	13.5 nM	
COc1cc(C(N)=O)cc(-c2ccc3ncnc(N[C@H]4CCN(C(=O)OC(C)(C)C)C4)c3c2)c1	82%		
COc1ccc(-c2ccc3ncnc(N[C@H]4CCN(C(C)=O)C4)c3c2)cn1	79%		
NC(=O)c1cc(-c2ccc3ncnc(-c4cccc(C(=O)NCCN5CCOCC5)c4)c3c2)ccc1Cl			IC50 [17]: 17 nM
COc1ccc(-c2ccc3ncnc(N[C@@H]4CCN(C(=O)OC(C)(C)C)C4)c3c2)cn1	0%		
COc1ccc(-c2ccc3ncnc(N[C@H]4CCN(C(=O)C5CCOCC5)C4)c3c2)cn1	97%	3.4 nM	
O=C(C1CC1)N1CC[C@H](Nc2ncnc3ccc(-c4ccc(OC(F)(F)F)cc4)cc23)C1	13%		
COc1ccc(-c2ccc3ncnc(N[C@H]4CCN(C(=O)CC(C)(C)C)C4)c3c2)cn1	94%	4.6 nM	
CC(C)(C)OC(=O)N1CC[C@H](Nc2ncnc3ccc(-c4ccc(OC(F)(F)F)cc4)cc23)C1	2%		
COc1ccc(-c2ccc3ncnc(N[C@H]4CCN(C(=O)C5CC5)C4)c3c2)cc1C(N)=O	84%		
